Experimental data: ChEMBL document CHEMBL1221268, “Synthesis of a series of novel 2,4,5-trisubstituted selenazole compounds as potential PLTP inhibitors” (Bioorg Med Chem Lett, 2010); call rule not given here
pIC50: −log10 of the molar value.

Columns and labels:
[1] = target: Phospholipid transfer protein (Homo sapiens, UniProt P55058); experiment: Inhibition of PLTP; details: for pIC50: read-out: IC50
[2] = target: T1, Cholesteryl ester transfer protein (Homo sapiens, UniProt P11597); experiment: Inhibition of CETP; details: for pIC50: read-out: IC50
T1 sequence (P11597 whole entry): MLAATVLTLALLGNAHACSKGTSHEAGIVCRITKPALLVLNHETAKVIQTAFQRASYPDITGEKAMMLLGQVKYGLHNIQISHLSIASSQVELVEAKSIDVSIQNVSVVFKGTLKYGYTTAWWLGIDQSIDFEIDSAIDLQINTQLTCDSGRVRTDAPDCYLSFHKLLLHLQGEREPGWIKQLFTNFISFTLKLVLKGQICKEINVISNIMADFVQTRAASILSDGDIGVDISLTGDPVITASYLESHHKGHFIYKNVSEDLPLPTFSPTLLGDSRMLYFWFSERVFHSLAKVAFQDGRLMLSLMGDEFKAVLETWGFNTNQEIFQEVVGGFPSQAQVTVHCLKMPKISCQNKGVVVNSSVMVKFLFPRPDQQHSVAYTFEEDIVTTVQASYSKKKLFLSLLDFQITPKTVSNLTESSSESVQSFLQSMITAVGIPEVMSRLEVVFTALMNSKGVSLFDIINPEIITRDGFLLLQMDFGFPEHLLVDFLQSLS

Sequence of Phospholipid transfer protein (P55058 whole entry): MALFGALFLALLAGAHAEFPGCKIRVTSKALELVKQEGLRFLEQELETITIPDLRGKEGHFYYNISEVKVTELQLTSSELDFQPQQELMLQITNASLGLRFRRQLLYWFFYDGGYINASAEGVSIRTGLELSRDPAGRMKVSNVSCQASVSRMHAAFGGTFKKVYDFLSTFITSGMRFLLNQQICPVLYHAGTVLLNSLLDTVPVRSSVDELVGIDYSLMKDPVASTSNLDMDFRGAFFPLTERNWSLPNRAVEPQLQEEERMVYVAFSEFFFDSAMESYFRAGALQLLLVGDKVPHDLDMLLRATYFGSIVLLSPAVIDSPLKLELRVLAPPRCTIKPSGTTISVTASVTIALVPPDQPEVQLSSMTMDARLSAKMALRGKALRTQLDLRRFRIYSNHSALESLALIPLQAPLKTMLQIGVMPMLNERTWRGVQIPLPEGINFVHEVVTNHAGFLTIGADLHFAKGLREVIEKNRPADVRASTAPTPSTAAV

IC50 [1] | SMILES | pIC50 [1] | IC50 [2] | pIC50 [2]
– | CCCCc1[se]c(NC(=O)c2cc(OC)c(OC)c(OC)c2)nc1-c1ccc(OC)cc1 | 3.82 | Not Active | –
– | CCCCc1[se]c(NC(=O)c2ccc(OC)c(OC)c2)nc1-c1ccc(OC)cc1 | 4.10 | Not Active | –
– | CCCCCC(=O)Nc1nc(-c2ccc(O)cc2)c(Cc2ccccc2)[se]1 | 4.22 | – | 4.60
– | CCc1[se]c(NC(=O)c2cc(O)c(O)c(O)c2)nc1-c1ccc(O)cc1 | 4.49 | Not Active | –
Not Active | O=C(Nc1nc(-c2ccccc2)c(-c2ccccc2)[se]1)c1cc(F)c(F)c(F)c1 | – | Not Active | –
– | O=C(Nc1nc(-c2ccc(O)cc2)c(Cc2ccccc2)[se]1)c1cc(O)c(O)c(O)c1 | 4.49 | Not Active | –
– | CCCCc1[se]c(NC(=O)c2cc(O)c(O)c(O)c2)nc1-c1ccc(O)cc1 | 5.00 | Not Active | –
Not Active | O=C(Nc1nc(-c2ccccc2)c(-c2ccccc2)[se]1)c1ccccc1 | – | Not Active | –
Not Active | COc1cc(C(=O)Nc2nc(-c3ccccc3)c(-c3ccccc3)[se]2)cc(OC)c1OC | – | Not Active | –
– | CCCCc1[se]c(NC(=O)c2ccc(Cl)cc2)nc1-c1ccc(O)cc1 | 4.22 | Not Active | –
– | CCCCc1[se]c(NC(C)=O)nc1-c1ccc(O)cc1 | 4.22 | Not Active | –
Not Active | CCc1[se]c(NC(=O)c2cc(OC)c(OC)c(OC)c2)nc1-c1ccc(OC)cc1 | – | Not Active | –
– | CCc1[se]c(NC(=O)c2ccc(Cl)cc2)nc1-c1ccc(O)cc1 | 4.22 | Not Active | –
– | O=C(Nc1nc(-c2ccc(O)cc2)c(Cc2ccccc2)[se]1)c1ccc(O)c(O)c1 | 4.46 | Not Active | –
– | COc1ccc(-c2nc(NC(=O)c3ccc(OC)c(OC)c3)[se]c2Cc2ccccc2)cc1 | 4.10 | – | 4.52
– | CCc1[se]c(NC(=O)c2ccc(OC)c(OC)c2)nc1-c1ccc(OC)cc1 | 4.00 | Not Active | –
– | COc1ccc(-c2nc(NC(=O)c3ccc([N+](=O)[O-])cc3)[se]c2Cc2ccccc2)cc1 | 4.07 | Not Active | –
– | O=C(Nc1nc(-c2ccccc2)c(-c2ccccc2)[se]1)c1ccc(O)c(O)c1 | 5.10 | Not Active | –
– | O=C(Nc1nc(-c2ccccc2)c(-c2ccccc2)[se]1)c1cc(O)c(O)c(O)c1 | 4.60 | Not Active | –

SMILES | IC50 [1] | pIC50 [1] | IC50 [2] | pIC50 [2]
CCc1[se]c(NC(=O)c2ccc(Cl)cc2)nc1-c1ccc(OC)cc1 | Not Active | – | Not Active | –
COc1ccc(-c2nc(NC(=O)c3cc(OC)c(OC)c(OC)c3)[se]c2Cc2ccccc2)cc1 | Not Active | – | – | 4.60
